From article PMC4105438, “Novel Benzoxazine-Based Aglycones Block Glucose Uptake In Vivo by Inhibiting Glycosidases” (PLoS ONE, 2014) come the findings set out here.

Data set [1] concerns overnight fasted Wistar rats. In words: Oral maltose tolerance test. It counts as in vivo, rat. From the text: (§1) Adult Wistar rats weighing 150–180 g were collected from the University Central Animal Facility and housed under a controlled environment. All animal experiments were approved by the Institutional Animal Ethical Committee (Order No : MGZ/2620/2011-12 Dated 31-01-2012; UOM/IAEC/18/2011), Department of Studies in Zoology, University of Mysore, Mysore and were in accordance with the guidelines of the Committee for the Purpose of Control and Supervision of Experiments on Animals (CPCSEA).
(§2) The experimental animals were randomly divided into 11 groups each consisting of 5 rats. […] Blood was collected from the tail vein to the tubes containing anticoagulant (2.5% trisodium citrate and 1.37% citric acid in the ratio 1∶5; anti-coagulant: blood) at time point 0 (just before sucrose/maltose administration), and subsequently at 30, 60, 90, 120 and 180 min after substrate (sucrose/maltose) administration. Plasma was separated by centrifuging the samples at 2000 rpm for 10 min and stored at −20°C until analysis. Plasma glucose concentration was determined by using the Glucose oxidase (GOD POD) kit according to the manufacturer’s protocol.

The next data set has as its target T1, α-Glucosidase (Saccharomyces cerevisiae, UniProt P53341).
T1 construct: purchased SRL, Mumbai (India)
In words: biochemical. Particulars: 0–100 µM, pre-incubation 10 min 37°C, pH 6.9; NS = not significant. The procedure: Porcine pancreatic α-Amylase and Yeast α-Glucosidase were purchased from SRL, Mumbai (India). Glucose oxidase (GOD POD) kit was purchased from Piramal HealthCare Ltd, Mumbai (India). All other chemicals used were of analytical grade and purchased from Sigma Aldrich, St. Louis (USA) and SRL, Mumbai (India). All IR spectra were obtained in KBr disc on a Shimadzu FT-IR 157 Spectrometer. ^1H and ^13C NMR spectra were recorded on a Bruker WH-200 (400 MZ) spectrometer in CDCl3 or DMSO-d6 as solvent, using TMS as an internal standard and chemical shifts are expressed as ppm. Mass spectra were determined on a Shimadzu LC-MS. The elemental analyses were carried out using an Elemental Vario Cube CHNS rapid Analyzer. The progress of the reaction was monitored by TLC pre-coated silica gel G plates.
The α-glucosidase inhibitory activities of synthesized compounds were evaluated using the method developed by Tsujii et al.. Briefly, α-glucosidase was dissolved in phosphate buffer (50 mM, pH 6.9) and pre-treated with various concentrations of 1,3-benzoxazine derivatives (0–100 µM) independently for 10 min at 37°C. The reaction was initiated by the addition of 50 µL of 5 mM p-nitrophenyl- α -D-glucopyranoside solution in phosphate buffer (50 mM, pH 6.9). The enzyme reaction was carried out at 37°C for 30 min. The reaction was terminated by the addition of Na2CO3 (1 M). The enzymatic activity of α-glucosidase was quantified by measuring the absorption at 405 nm using a Varioskan multimode plate reader (Thermo Scientifics, USA). The inhibitory effect of compounds was defined as inhibitory activity (%) = (Abs Control – Abs Compound treated)/Abs Control ×100. Concentration-response assays were used to determine the potency (IC50) of 1,3-benzoxazine derivatives based on the logistic analysis of the concentration-response curve using Microsoft Excel.

For a further data set, the system named is porcine diaphragm. In words: Glucose uptake study in porcine diaphragm. To be noted: 50 and 100 µM, with and without insulin (1 U), 5 mM glucose. How it is done:
Porcine diaphragm was purchased from a slaughter house, and cleaned using ice cold 0.9% saline several times to remove blood stains. This diaphragm was used for glucose uptake and inhibition by compound 7. Diaphragm (100 mg) was suspended in a 24 well culture plate containing 500 µL saline. In order to initiate the reaction, 5 mM glucose was added to each well. To enhance the glucose uptake by the diaphragm, 1 unit of insulin was used in each well, and the volume was made up to 1 ml with saline. For inhibition studies, compound 7 at a concentration of 50 & 100 µM was used. From each well 100 µL of the assay mixture was aspirated at different time intervals (0, 5, 10, 20, 30 and 60 min). From this, glucose concentration was measured using Glucose oxidase (GOD POD) kit according to the manufacturer’s protocol.

The test system of data set [2] is overnight fasted Wistar rats. Description: Oral sucrose tolerance test. It counts as in vivo, rat.
From the text: as §1, §2

Data set [3] deals with T2, Porcine pancreatic α-amylase (Sus scrofa, UniProt P00690).
T2 construct: purchased SRL, Mumbai (India)
T2 sequence (P00690 16-511): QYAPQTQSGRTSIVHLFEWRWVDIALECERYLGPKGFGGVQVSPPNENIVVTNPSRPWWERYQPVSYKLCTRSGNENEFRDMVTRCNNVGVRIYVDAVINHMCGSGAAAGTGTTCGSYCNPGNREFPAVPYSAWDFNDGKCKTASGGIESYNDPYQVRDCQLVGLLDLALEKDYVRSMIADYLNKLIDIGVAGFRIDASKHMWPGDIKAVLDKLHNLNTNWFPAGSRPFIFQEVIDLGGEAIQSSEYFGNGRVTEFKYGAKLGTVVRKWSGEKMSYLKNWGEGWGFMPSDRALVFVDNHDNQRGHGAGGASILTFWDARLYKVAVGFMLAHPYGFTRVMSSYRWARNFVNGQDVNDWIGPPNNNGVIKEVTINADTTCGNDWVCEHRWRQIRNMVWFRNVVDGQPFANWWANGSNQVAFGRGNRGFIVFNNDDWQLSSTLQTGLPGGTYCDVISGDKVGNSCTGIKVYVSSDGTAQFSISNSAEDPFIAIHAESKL
Description: α-amylase inhibition assay (starch, DNS reagent). It counts as biochemical. Particulars: 0–100 µM, pre-incubation 10 min 37°C, pH 6.9; NS = not significant. The procedure: Porcine pancreatic α-Amylase and Yeast α-Glucosidase were purchased from SRL, Mumbai (India). Glucose oxidase (GOD POD) kit was purchased from Piramal HealthCare Ltd, Mumbai (India). All other chemicals used were of analytical grade and purchased from Sigma Aldrich, St. Louis (USA) and SRL, Mumbai (India). […] Mass spectra were determined on a Shimadzu LC-MS. The elemental analyses were carried out using an Elemental Vario Cube CHNS rapid Analyzer. The progress of the reaction was monitored by TLC pre-coated silica gel G plates.
The α-amylase inhibition assay was performed according to a previous report. Porcine pancreatic α-amylase (3 units/mL) was dissolved in 0.1 M phosphate buffered saline, pH 6.9. […] The reaction was initiated by adding substrate solution (0.1% starch) to the incubation medium. After 10 min incubation, the reaction was stopped by adding 250 µL dinitrosalicylic (DNS) reagent (1% 3, 5-dinitrosalicylic acid, 0.2% phenol, 0.05% Na2SO3 and 1% NaOH in aqueous solution) to the reaction mixture. The reaction was terminated by keeping the reaction mixture in boiling water bath for 10 min. Thereafter, 250 µL of 40% potassium sodium tartarate solution was added to the mixtures to stabilize the colour. After cooling to room temperature in a cold water bath, the absorbance was recorded at 540 nm using a Varioskan multimode plate reader (Thermo Scientifics, USA). Acrabose was used as positive control. The percentage of inhibition was calculated using Abs Contol – Abs Sample ×100/Abs Control. Where Abs Control was the absorbance without sample, Abs sample was the absorbance of enzyme with compound.

A further data set has as its target T3, rat intestinal sucrase (Rattus norvegicus, UniProt P23739).
T3 construct: the supernatant obtained was used as enzyme source; tissue Sigma Aldrich, St. Louis (USA); host or cells: rat intestinal acetone powder (supernatant of the saline homogenate)
In words: Intestinal α-glucosidase inhibitory assay, sucrose as substrate. Type of data set: biochemical. The procedure: (§3) Intestinal α-glucosidase activity was determined by measuring the amount of glucose hydrolyzed from maltose or sucrose. Briefly, rat intestinal acetone powder was homogenized in 0.9% saline and the suspension was centrifuged at 10,000 g for 30 min at 4°C and the supernatant obtained was used as enzyme source. […] After the respective incubation period, reaction was terminated by keeping the samples in boiling water bath for 10 min. The concentration of glucose released from the reaction mixtures was determined by using Glucose oxidase (GOD POD) kit according to the manufacturer’s protocol. Results were expressed as percentage inhibition of intestinal maltase/sucrase activity.

The test system of the next data set is rat intestinal maltase. Description: Intestinal α-glucosidase inhibitory assay, maltose as substrate. Type of data set: biochemical. How it is done:
as §3

T3 sequence (P23739 whole entry): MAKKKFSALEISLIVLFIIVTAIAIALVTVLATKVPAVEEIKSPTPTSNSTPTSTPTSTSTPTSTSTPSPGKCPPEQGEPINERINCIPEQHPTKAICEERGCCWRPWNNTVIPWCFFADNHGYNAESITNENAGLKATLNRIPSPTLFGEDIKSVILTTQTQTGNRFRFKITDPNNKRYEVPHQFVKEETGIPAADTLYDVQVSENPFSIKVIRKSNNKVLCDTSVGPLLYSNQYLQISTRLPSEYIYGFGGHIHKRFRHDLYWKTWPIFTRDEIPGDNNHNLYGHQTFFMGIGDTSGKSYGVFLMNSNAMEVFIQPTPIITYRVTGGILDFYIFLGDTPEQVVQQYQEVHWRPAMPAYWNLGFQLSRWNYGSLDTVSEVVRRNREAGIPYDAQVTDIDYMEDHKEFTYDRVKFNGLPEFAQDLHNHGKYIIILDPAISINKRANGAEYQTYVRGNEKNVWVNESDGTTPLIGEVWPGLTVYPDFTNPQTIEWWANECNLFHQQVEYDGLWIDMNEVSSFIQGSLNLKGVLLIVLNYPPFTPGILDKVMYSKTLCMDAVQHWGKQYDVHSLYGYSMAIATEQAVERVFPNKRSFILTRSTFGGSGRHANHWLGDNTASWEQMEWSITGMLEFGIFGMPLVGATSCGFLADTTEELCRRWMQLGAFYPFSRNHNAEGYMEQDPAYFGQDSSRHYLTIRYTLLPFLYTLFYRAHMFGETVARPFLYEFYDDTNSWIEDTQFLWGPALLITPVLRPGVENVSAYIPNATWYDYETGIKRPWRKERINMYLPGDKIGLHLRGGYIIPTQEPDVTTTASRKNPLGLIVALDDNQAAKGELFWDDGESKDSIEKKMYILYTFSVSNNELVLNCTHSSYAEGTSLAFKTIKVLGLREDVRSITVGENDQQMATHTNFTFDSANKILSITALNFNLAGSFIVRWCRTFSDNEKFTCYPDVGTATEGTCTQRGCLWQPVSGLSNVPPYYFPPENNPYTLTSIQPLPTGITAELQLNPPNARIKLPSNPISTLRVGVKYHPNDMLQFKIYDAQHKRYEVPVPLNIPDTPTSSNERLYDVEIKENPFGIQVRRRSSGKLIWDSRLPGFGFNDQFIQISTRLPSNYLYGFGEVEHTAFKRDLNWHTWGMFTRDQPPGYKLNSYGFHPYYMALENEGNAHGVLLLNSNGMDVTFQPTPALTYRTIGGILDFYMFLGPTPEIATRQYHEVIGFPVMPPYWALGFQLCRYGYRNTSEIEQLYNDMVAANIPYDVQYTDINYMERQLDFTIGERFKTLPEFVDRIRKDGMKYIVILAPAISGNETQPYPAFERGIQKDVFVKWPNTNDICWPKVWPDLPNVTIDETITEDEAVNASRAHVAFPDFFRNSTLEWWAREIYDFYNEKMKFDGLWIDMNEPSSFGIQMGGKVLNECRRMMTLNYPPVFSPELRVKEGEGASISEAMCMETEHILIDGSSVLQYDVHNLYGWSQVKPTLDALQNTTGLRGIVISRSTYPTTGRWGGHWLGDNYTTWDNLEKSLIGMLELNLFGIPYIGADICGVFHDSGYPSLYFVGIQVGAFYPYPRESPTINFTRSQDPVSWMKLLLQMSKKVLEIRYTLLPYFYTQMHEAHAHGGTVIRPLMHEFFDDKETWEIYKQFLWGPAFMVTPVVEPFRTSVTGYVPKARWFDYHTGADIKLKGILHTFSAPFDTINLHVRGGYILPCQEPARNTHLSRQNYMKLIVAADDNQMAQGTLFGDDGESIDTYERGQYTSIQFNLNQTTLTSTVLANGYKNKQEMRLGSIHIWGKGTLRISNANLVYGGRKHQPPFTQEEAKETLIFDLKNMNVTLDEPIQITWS
T1 sequence (P53341 whole entry): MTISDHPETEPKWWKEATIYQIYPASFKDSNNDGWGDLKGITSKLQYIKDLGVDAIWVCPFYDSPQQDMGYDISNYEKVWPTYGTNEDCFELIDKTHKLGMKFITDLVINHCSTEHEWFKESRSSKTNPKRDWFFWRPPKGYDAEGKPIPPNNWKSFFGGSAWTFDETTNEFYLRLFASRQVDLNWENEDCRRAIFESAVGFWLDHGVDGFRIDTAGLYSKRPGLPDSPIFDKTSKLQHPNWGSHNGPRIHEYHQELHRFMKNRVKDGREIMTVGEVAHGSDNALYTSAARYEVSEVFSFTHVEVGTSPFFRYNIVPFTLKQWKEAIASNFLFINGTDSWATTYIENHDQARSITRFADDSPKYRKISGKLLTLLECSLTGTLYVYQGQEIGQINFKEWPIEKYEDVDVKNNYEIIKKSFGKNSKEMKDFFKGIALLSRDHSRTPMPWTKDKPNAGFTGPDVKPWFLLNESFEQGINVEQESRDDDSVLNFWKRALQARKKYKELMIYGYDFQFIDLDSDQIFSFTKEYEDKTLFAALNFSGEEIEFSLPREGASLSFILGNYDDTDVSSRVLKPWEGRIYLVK

Turning to `Oc1ccc(C2Nc3cc(Cl)ccc3CO2)cc1` (stereo not shown) [compound 7, 4-(7-chloro-2,4-dihydro-1H-benzo[d][1,3]oxazin-2-yl)phenol], the melting point (usually the temperature of the solid-liquid transition) lay in the range of 139 to 141 °C. The plasma glucose concentration result in data set [1] (50 mg/kg oral, maltose 3 g/kg, 90 min, compared to acarbose) was “significantly reduced plasma glucose concentration at the 90 min time point compared to acarbose”. For the same compound, the plasma glucose concentration result in data set [1] (100 mg/kg oral, maltose 3 g/kg, compared to acarbose standard) is on record as “significantly more effective than the acarbose standard at all time points”. The plasma glucose concentration entry in data set [1] (compound 7 50 mg/kg together with acarbose 3 mg/kg, maltose, up to 180 min, compared to saline group) is “plasma glucose concentration remained unchanged when compared to the saline treated group”. Besides, half-maximal inhibition on α-Glucosidase (IC50) was put at 11.5 ± 0.1 µM. In addition, in the data set with porcine diaphragm, the “glucose uptake by diaphragm” value is “significantly blocked the glucose uptake both in control and insulin treated diaphragm in a dose-dependent manner”. Moreover, the plasma glucose concentration entry in data set [2] (50 mg/kg oral, sucrose 3 g/kg, 0–180 min, compared to acarbose treated group) was “significantly reduced the plasma glucose concentration throughout all time points”. Besides, the plasma glucose concentration result in data set [2] (100 mg/kg oral, sucrose 3 g/kg, compared to acarbose standard) is “significantly more effective than the acarbose standard at all time points”. Also, in data set [2] (compound 7 50 mg/kg together with acarbose 3 mg/kg, sucrose, up to 180 min, compared to saline group), the plasma glucose concentration entry is on record as “plasma glucose concentration remained unchanged when compared to the saline treated group”. Also, in data set [3], 11 ± 0.3 µM corresponded to half-maximal inhibition (IC50). In addition, the “percentage inhibition of intestinal sucrase” value on rat intestinal sucrase (compound 7 5–25 µM) is listed as “dose-dependent manner”. On rat intestinal sucrase (rat intestinal acetone powder, sucrose 56 mM, 60 min), half-maximal inhibition (IC50) required 20 µM. Moreover, the “percentage inhibition of intestinal maltase in presence of acarbose” value in the data set with rat intestinal maltase (5 µM acarbose with compound 7 1–10 µM, compared with intestinal sucrase) is on record as “synergistically inhibited intestinal maltase more efficiently compared to intestinal sucrase”. Further, in the data set with rat intestinal maltase (compound 7 5–25 µM), the “percentage inhibition of intestinal maltase” value is “dose-dependent manner”. For the same compound, on rat intestinal maltase (rat intestinal acetone powder, maltose 37 mM, 30 min), the IC50 (commonly the concentration at which inhibition is half-maximal) came to 10 µM. Further, the “selectivity for maltase over sucrase” value in the data set with rat intestinal maltase (ratio of IC50 values, rat intestinal enzymes) is given as “two-fold selective for maltase”.
